Measurements as given in patent publication US4358441A, “Nicotinic derivatives of glucosamine and related pharmaceutical compositions” (Laboratorio Guidotti & C. S.p.A., priority 1980, dated 1982).

What was measured:
[1] = test system: plasma levels of free glycerol; experiment: Effect of oral administration on plasma levels of free glycerol in the empty rat; type: in vivo, rat (COBS CD (SD) BR male); conditions: for Percent variations of plasma free glycerol with respect to the controls: empty rat
[2] = test system: plasma levels of triglycerides; experiment: Effect of oral administration on plasma levels of triglycerides in the empty rat; type: in vivo, rat (COBS CD (SD) BR male); conditions: for Percent variations of plasma triglycerides with respect to the controls: empty rat; for Time within which the effect on triglycerides disappears: rat
[3] = test system: plasma levels of cholesterol; experiment: Effect of oral administration on plasma levels of cholesterol in the empty rat; type: in vivo, rat (COBS CD (SD) BR male); conditions: for Percent variations of plasma cholesterol with respect to the controls: 100 mg/kg oral referred to nicotinic acid, empty rat
in vivo = conditions: rat, po, 100 mg/kg
plasma levels of FFA = experiment: Effect of oral administration on plasma levels of FFA in the empty rat; conditions: for Percent variations of plasma FFA with respect to the controls: empty rat
[4] = Acute toxicity (LD50) in rats of both sexes, oral and intraperitoneal route; conditions: rat, in vivo, LD50, rat
[5] = Plasma levels (kinetics) of free nicotinic acid after oral administration in the rat; conditions: 100 mg/kg p.o.
[6] = 30 mg/kg oral referred to nicotinic acid, 1 h
[7] = 30 mg/kg oral referred to nicotinic acid, 2 h
[8] = 30 mg/kg oral referred to nicotinic acid, 4 h
[9] = 30 mg/kg oral referred to nicotinic acid, 6 h
[10] = 100 mg/kg oral referred to nicotinic acid, 2 h
[11] = 100 mg/kg oral referred to nicotinic acid, 4 h
[12] = 100 mg/kg oral referred to nicotinic acid, 6 h
[13] = 100 mg/kg oral referred to nicotinic acid, 8 h
[14] = 100 mg/kg oral referred to nicotinic acid, 10 h
[15] = 100 mg/kg oral referred to nicotinic acid, 16 h
[16] = 100 mg/kg oral referred to nicotinic acid, 24 h

O=C(O)c1cccnc1 [NICOTINIC ACID, nicotinic acid]
Percent variations of plasma free glycerol with respect to the controls [1, 6]: -72% | Percent variations of plasma free glycerol with respect to the controls [1, 7]: -27% | Percent variations of plasma free glycerol with respect to the controls [1, 8]: +16% | Percent variations of plasma free glycerol with respect to the controls [1, 9]: +15% | Activity on free glycerol ([1]; 30 mg/kg oral, rat): active only after 1 hour | Percent variations of plasma free glycerol with respect to the controls [1, 10]: -73% | Percent variations of plasma free glycerol with respect to the controls [1, 11]: -71% | Percent variations of plasma free glycerol with respect to the controls [1, 12]: +9% | Percent variations of plasma free glycerol with respect to the controls [1, 13]: +11% | Percent variations of plasma free glycerol with respect to the controls [1, 14]: +16% | Percent variations of plasma free glycerol with respect to the controls [1, 15]: -12% | Percent variations of plasma free glycerol with respect to the controls [1, 16]: -4% | Time within which the effect on free glycerol disappears ([1]; 100 mg/kg oral, rat): within the sixth hour | Percent variations of plasma triglycerides with respect to the controls [2, 6]: -49% | Percent variations of plasma triglycerides with respect to the controls [2, 7]: -49% | Percent variations of plasma triglycerides with respect to the controls [2, 8]: +8% | Percent variations of plasma triglycerides with respect to the controls [2, 9]: +17% | Time within which the effect on triglycerides disappears ([2]; 30 mg/kg oral): ≤ 4 h | Percent variations of plasma triglycerides with respect to the controls [2, 10]: -57% | Percent variations of plasma triglycerides with respect to the controls [2, 11]: -58% | Percent variations of plasma triglycerides with respect to the controls [2, 12]: -59% | Percent variations of plasma triglycerides with respect to the controls [2, 13]: -38% | Percent variations of plasma triglycerides with respect to the controls [2, 14]: +4% | Percent variations of plasma triglycerides with respect to the controls [2, 15]: +21% | Percent variations of plasma triglycerides with respect to the controls [2, 16]: -16% | Time within which the effect on triglycerides disappears ([2]; 100 mg/kg oral): within the tenth hour | Percent variations of plasma cholesterol with respect to the controls ([3]; 4 h): -12% | Percent variations of plasma cholesterol with respect to the controls ([3]; 6 h): -12% | Percent variations of plasma cholesterol with respect to the controls ([3]; 8 h): -13% | Percent variations of plasma cholesterol with respect to the controls ([3]; 10 h): -17% | Percent variations of plasma cholesterol with respect to the controls ([3]; 16 h): -14% | Percent variations of plasma cholesterol with respect to the controls ([3]; 24 h): -27% | Lowering of cholesterolemy ([3]; 100 mg/kg oral, rat): lowered at the eighth, tenth and twenty fourth hour | Tmax (in vivo): ≤ 30 min | concentration at 0.5 h (in vivo): 108000 ng/mL | concentration at 1 h (in vivo): 106000 ng/mL | concentration at 2 h (in vivo): 98300 ng/mL | concentration at 4 h (in vivo): 10600 ng/mL | concentration at 6 h (in vivo): 760 ng/mL | concentration at 8 h (in vivo): 250 ng/mL | concentration at 12 h (in vivo): 490 ng/mL | concentration at 16 h (in vivo): 120 ng/mL | Percent variations of plasma FFA with respect to the controls (plasma levels of FFA; [6]): -81% | Percent variations of plasma FFA with respect to the controls (plasma levels of FFA; [7]): -43% | Percent variations of plasma FFA with respect to the controls (plasma levels of FFA; [8]): +23% | Percent variations of plasma FFA with respect to the controls (plasma levels of FFA; [9]): +11% | FFA rebound (plasma levels of FFA; 30 mg/kg oral, rat): causes FFA rebound in the fourth hour | Percent variations of plasma FFA with respect to the controls (plasma levels of FFA; [10]): -77% | Percent variations of plasma FFA with respect to the controls (plasma levels of FFA; [11]): -68% | Percent variations of plasma FFA with respect to the controls (plasma levels of FFA; [12]): +23% | Percent variations of plasma FFA with respect to the controls (plasma levels of FFA; [13]): +23% | Percent variations of plasma FFA with respect to the controls (plasma levels of FFA; [14]): +13% | Percent variations of plasma FFA with respect to the controls (plasma levels of FFA; [15]): -9% | Percent variations of plasma FFA with respect to the controls (plasma levels of FFA; [16]): -5% | FFA rebound (plasma levels of FFA; 100 mg/kg oral, rat): eighth | Time within which the effect on FFA disappears (plasma levels of FFA; 100 mg/kg oral, rat): ≤ 6 h | LD50 ([4]; ip, female): 296 mg/kg | LD50 ([4]; ip, male): 328 mg/kg | LD50 ([4]; po, female, os): 3850 mg/kg | LD50 ([4]; po, male, os): 3860 mg/kg | Peak plasma concentration of free nicotinic acid, times higher than that of niceritrole [5]: about two times higher
